Measurements as given in US12576155B2, “Senolytic and antiinflammatory prodrugs and methods of use thereof” (priority 2019, dated 2026).

How the values were obtained:
p38 MAPK = experiment: Western blotting of phos-p38 MAPK in senescent cells; format: cell-based, mouse; settings: 0.5 μM SSK1, after 36 hours of treatment
Method: Senescent NBF cells were plated and incubated overnight at 37° C. The cells were treated with 0.05 μM gemcitabine or 0.5 μM SSK1 prodrug for the indicated time. Before harvest, cells were washed twice with pre-cooled PBS buffer. Total protein was extracted with lysis buffer (50 mM Tris-HCl (pH 7.5), 137 mM sodium chloride, 1 mM EDTA, 1% Nonidet P-40, 10% glycerol, 0.1 mM sodium orthovanadate, 10 mM sodium pyrophosphate, 20 mM β-glycerophosphate, 50 mM sodium fluoride, 1 mM phenylmethylsulfonyl fluoride), and the protein concentrations were normalized using the BCA Protein Assay Kit (Pierce). Protein samples were mixed with protein loading buffer and incubated at 95° C. for 5 min. Western blotting was performed by using the following antibodies: phospho-specific p38 MAPK (Thr180/Tyr182) (Cell Signaling Technology, CST, catalog number 4511) and p38 (CST, catalog number 8690); phospho-histone H2A.X (Ser139) (CST, catalog number 9718) and histone H2A.X (CST, catalog number 7631). The β-tubulin protein level was also determined as the loading control by using the β-tubulin antibody (CST, catalog number 2128).

[1] = Serum biochemical test and routine blood analysis in old mice (toxicity); format: in vivo
Method: All drugs were mixed in 90% PBS, 5% Tween-80 (P1754, Sigma), and 5% polyethylene glycol (PEG) (81172, Sigma) and administered to mice by intraperitoneal (i.p.) injection. […] […] Gemcitabine was purchased from MCE.
For blood routine examination, 50 μl fresh blood was collected from each mouse and mixed with EDTA immediately. The blood samples were analyzed by Celltac Alpha MEK-6400 series hematology analyzers (Nihon Kohden, MEK-6400). For serum biochemical analysis, blood samples were collected, clotted for 2 hours at room temperature or overnight at 4° C., and then centrifuged (1000 g, 10 min) to gain serum. 200 μl serum was aliquot and analyzed of Alanine transaminase (ALT), aspartate transaminase (AST), uric acid (UA) and creatinine (CREA) by Chemistry Analyzer (Mindray, BS-350E).

[2] = test system: SARS-CoV-2-infected rhesus macaques; experiment: SARS-CoV-2-infected rhesus macaques, early-stage SSK1 treatment (2.0 mg/kg once daily for 7 days from 0 dpi); format: in vivo; settings: for Clinical observation: Body weight change (%) / Clinical observation: Increased temperature: 2.0 mg/kg

CC(=O)OCC1O[C@@H](Oc2ccc(COC(=O)Nc3ccn([C@@H]4O[C@H](CO)C(O)C4(F)F)c(=O)n3)cc2[N+](=O)[O-])C(OC(C)=O)C(OC(C)=O)[C@H]1OC(C)=O (some centres unmarked) [SSK1]
State of p38 MAPK (phosphorylation) (p38 MAPK): activated p38 MAPK by phosphorylation | Systemic toxicities (serum biochemical test and routine blood analysis) ([1]; aged mice, high concentration (100 mg/kg) and high frequency, 5 weeks, 3 injections a week): no obvious systemic toxicities | Apoptosis of β-gal positive epithelial tubular cells in the kidney ([1]; following SSK1 treatment): only a few cells of this tubular cell population was shown to be undergoing apoptosis | System toxicity (serum biochemical test and routine blood analysis) ([1]; old mice, 0.5 mg/kg for 8 weeks, FIGS. 7A and B): no obvious system toxicity | Progression of pulmonary infiltrates on chest X-ray ([2]; 6 dpi compared to 3 dpi): no progression | Clinical observation: Body weight change (%) ([2]; M1 adult 5-year): +4.62% | Clinical observation: Increased temperature ([2]; M1 adult 5-year): light | Clinical observation: Body weight change (%) ([2]; M2 adult 5-year): +1.64% | Clinical observation: Increased temperature ([2]; M2 adult 5-year): light | Large necrotic lesions in the livers at necropsy ([2]; SSK1-treated group): not in the SSK1-treated group | Lung histopathology (H&E) ([2]; SSK1-treated group): minimally thickened alveolar septum and focal edema | Serum level of IL-18 ([2]; SSK1-treated group): increased significantly | Virus shedding (virus load in nose, throat, anal swabs and blood, RT-qPCR) ([2]; SSK1-treated group): no delay but even faster reduction in virus shedding | Body temperature ([2]; SSK1-treated group, 2 mg/kg): relatively stable | Body weight ([2]; SSK1-treated group, 2 mg/kg, 0 to 7 dpi): remained constant | Airway narrowing and mucinous secretions (AB-PAS staining) ([2]; SSK1 treatment): recovered the airway narrowing and extensive mucinous secretions | Gross lung lesions at necropsy ([2]; animal M1): Some brown punctate lesions | Pulmonary hemorrhages (H&E) ([2]; animal M1): local pulmonary hemorrhages | Ground-glass opacification in the lungs on X-ray ([2]; animal M1, 2 mg/kg, 3 dpi): Ground-glass opacification appeared | Gross lung lesions at necropsy ([2]; animal M2): No obvious lung lesions | Signs of pneumonia on X-ray ([2]; animal M2, 2 mg/kg): no signs of pneumonia on X-ray throughout the experiment | Concentrations of inflammatory cytokines GM-CSF, IL-1β, IL-12, MIP-1A and TNF-α in lung tissues ([2]; vs vehicle): lower | Viral load in the respiratory tract tissues and multiple organs ([2]; vs vehicle-treated group): grossly lower
